From patent publication US20230146507A1, “N-PHENYL-3-MERCAPTOPROPANAMIDE DERIVATIVES AS METALLO-BETA-LACTAMASE INHIBITORS FOR THE TREATMENT OF BACTERIAL INFECTIONS” (Helmholtz-Zentrum Für Infektionsforschung GmbH, priority 2020, published 2023)
≈ marks a conversion by molar mass, not a printed value.

Legend:
[1] = test system: E. coli IMP-1 (T2360); test: Checkerboard assay with imipenem, E. coli IMP-1 (T2360); format: cell-based
Experimental: (§1) Fractional inhibitory concentration index (FICI). The checkerboard assay was performed to test for synergy in vitro. […] FICIs≤0.5 were defined as synergistic; FICIs from >0.5 to […] were defined as additive; FICIs from 1 to ≤4 were defined as indifferent and FICIs>4 were defined as antagonistic (Doern, C. D. When Does 2 plus 2 Equal 5? A Review of Antimicrobial Synergy Testing. J. Clin. Microbial. 2014, 52 (12), 4124-4128. https://doi.org/10.1128/JCM.01121-14).

[2] = test system: E. cloacae NDM-1 (T2311); test: MIC assay, clinical isolate; format: cell-based
[3] = test system: E. coli NDM-7 (T2239); test: MIC assay, clinical isolate; format: cell-based
[4] = molecular target: T1, VIM-1 (Pseudomonas aeruginosa, UniProt A0A0F7KYQ8); test: In vitro inhibition assay (kinetic fluorescence-based activity assay), VIM-1; format: biochemical; conditions: Means and SD of at least two independent experiments
T1 construct: made in house
Experimental: (§2) Protein expression and purification. The expression of IMP-7, VIM-1, and NDM-1 was performed according to the protocol previously published by Klingler et al. (Klingler, F. M.; Wichelhaus, T. A.; Frank, D.; Cuesta-Bernal, J.; El-Delik, J.; Müller, H. F.; Sjuts, H.; Gottig, S.; Koenigs, A.; Pos, K. M.; et al. Approved Drugs Containing Thiols as Inhibitors of Metallo-β-Lactamases: Strategy to Combat Multidrug-Resistant Bacteria. J. Med. Chem. 2015, 58 (8), 3626-3630. https://doi.org/10.1021/jm501844d) with slight modifications.
(§3) In vitro inhibition assay. Activity assays for NDM-1, VIM-1, VIM-2 and IMP-7 were carried out, as described by Klingler et al. Final protein concentrations were 0.5 nM (NDM-1), 4.0 nM (VIM-1), and 0.1 nM (IMP-7) in a 50 mM HEPES buffer (pH 7.5, 0.01% Triton X-100) Substrate (Fluorocillin™ (Invitrogen, Darmstadt, Germany) was dissolved in assay buffer to a final concentration of 888 nM. Test compounds were dissolved and pre-diluted in DMSO (final concentration: 1%). In a black polystyrol 96-well plate (Corning) an amount of […] of the respective inhibitor solution at different concentrations was incubated with […] of respective protein containing buffer for 30 minutes at room temperature. […] of substrate solution was added. The readout of the emitted fluorescence was started immediately (45 s for 30 cycles) using a Tecan Infinite F200Pro (Tecan Group Ltd; excitation at 495 nm and emission at 525 nm). Blank controls were performed without enzyme. Positive controls were performed with enzyme but without inhibitor. The inhibitory activity of each test compound was measured in three independent experiments. For calculation of IC50 values, data obtained from measurements with eight different inhibitor concentrations were used. For the evaluation of the sigmoidal dose response equation (variable slope with four parameters) GraphPad Prism 5 (GraphPad Software, La Jolla, Calif., USA) was used.

[5] = test system: E. coli NDM-1 (T2359); test: Checkerboard assay with imipenem, E. coli NDM-1 (T2359); format: cell-based; conditions: for Imipenem MIC: Table 6
Experimental: as §1

[6] = test system: different isolates from E. coli and P. aeruginosa; test: MIC assay, intrinsic antibacterial activity; format: cell-based; conditions: compound alone
[7] = test system: E. coli KPC-2 (T2435); test: MIC assay, clinical isolate; format: cell-based; conditions: intrinsic antimicrobial activity
[8] = test system: E. coli NDM-5 (T2351); test: MIC assay, clinical isolate; format: cell-based
[9] = test system: E. cloacae VIM-1 (T2353); test: MIC assay, clinical isolate; format: cell-based
[10] = test system: P. aeruginosa IMP-1 (T2325); test: MIC assay, clinical isolate; format: cell-based
[11] = molecular target: IMP-7 (Pseudomonas aeruginosa, UniProt Q93AU3); test: In vitro inhibition assay (kinetic fluorescence-based activity assay), IMP-7; format: biochemical; conditions: Means and SD of at least two independent experiments
Sequence of IMP-7 (Q93AU3 entry or part of it): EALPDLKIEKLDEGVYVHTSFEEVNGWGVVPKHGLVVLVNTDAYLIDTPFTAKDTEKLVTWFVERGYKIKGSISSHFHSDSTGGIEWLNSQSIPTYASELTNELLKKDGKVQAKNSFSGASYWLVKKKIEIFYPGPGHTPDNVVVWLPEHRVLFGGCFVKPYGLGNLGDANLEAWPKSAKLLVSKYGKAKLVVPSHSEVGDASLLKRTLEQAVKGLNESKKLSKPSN
Experimental: as §2, §3

[12] = test system: S. marcescens NDM-1 (T2352); test: MIC assay, clinical isolate; format: cell-based
[13] = test system: E. coli VIM-1 (T2544); test: Checkerboard assay with imipenem, E. coli VIM-1 (T2544); format: cell-based
Experimental: as §1

[14] = test system: P. aeruginosa VIM-1 (T2357); test: MIC assay, clinical isolate; format: cell-based; conditions: intrinsic antimicrobial activity
[15] = test system: E. cloacae GIM-1 (T2218); test: MIC assay, clinical isolate; format: cell-based
[16] = molecular target: T2, NDM-1 (Klebsiella pneumoniae, UniProt C7C422); test: In vitro inhibition assay (kinetic fluorescence-based activity assay), NDM-1; format: biochemical; conditions: Means and SD of at least two independent experiments
T2 construct: made in house
T2 sequence (C7C422 29-270, looked up, species assumed): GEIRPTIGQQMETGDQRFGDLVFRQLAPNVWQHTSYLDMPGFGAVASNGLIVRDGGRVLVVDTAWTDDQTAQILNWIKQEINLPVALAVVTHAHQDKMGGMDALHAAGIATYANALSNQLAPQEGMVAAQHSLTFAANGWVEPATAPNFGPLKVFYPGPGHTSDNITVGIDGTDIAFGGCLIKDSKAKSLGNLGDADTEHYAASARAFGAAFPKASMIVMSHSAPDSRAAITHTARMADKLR
Experimental: as §2, §3

[17] = test system: A. baumannii OXA-23 (T2434); test: MIC assay, clinical isolate; format: cell-based; conditions: intrinsic antimicrobial activity
[18] = test system: K. pneumoniae NDM-1 (T2301); test: MIC assay, clinical isolate; format: cell-based
[19] = test system: E. coli producing NDM-1; test: MIC of imipenem in the presence of HIPS1686; format: cell-based; conditions: Escherichia coli
[20] = intrinsic antimicrobial activity
[21] = Escherichia coli, read-out: Imipenem MIC

O=C(CCS)Nc1cccc(C(=O)O)c1 [HIPS5694, 3-(3-mercaptopropanamido)benzoic acid]
Imipenem MIC ([1]; +2 mg/L compound): 2 µg/mL | Imipenem MIC ([1]; +4 mg/L compound): 2 µg/mL | Imipenem MIC ([1]; +8 mg/L compound): 1 µg/mL | Imipenem MIC ([1]; +16 mg/L compound): 1 µg/mL | Imipenem MIC ([1]; +32 mg/L compound): 1 µg/mL | Imipenem MIC ([1]; +64 mg/L compound): 0.5 µg/mL | Imipenem MIC ([1]; +128 mg/L compound): 0.5 µg/mL | MIC (mg/L) Imipenem (+HIPS 5694 128 mg/L) ([2]; +HIPS 5694 128 mg/L): 1 mg/L (≈ 4.44 µM) | HIPS 5694 MIG [2, 20]: >256 mg/L | MIC (mg/L) Imipenem (+HIPS 5694 128 mg/L) ([3]; +HIPS 5694 128 mg/L, E. coli NDM-7 (T2239)): 2 mg/L (≈ 8.88 µM) | HIPS 5694 MIG ([3]; intrinsic antimicrobial activity, E. coli NDM-7 (T2239)): >256 mg/L | IC50 [4]: 1.2 µM | Imipenem MIC ([5]; +2 mg/L compound): 128 µg/mL | Imipenem MIC ([5]; +4 mg/L compound): 128 µg/mL | Imipenem MIC ([5]; +8 mg/L compound): 64 µg/mL | Imipenem MIC ([5]; +16 mg/L compound): 64 µg/mL | Imipenem MIC ([5]; +32 mg/L compound): 8 µg/mL | Imipenem MIC ([5]; +64 mg/L compound): 2 µg/mL | Imipenem MIC ([5]; +128 mg/L compound): ≤0.5 µg/mL | intrinsic antibacterial activity (MIC) [6]: no intrinsic antibacterial activity | HIPS 5694 MIG [7]: >256 mg/L | MIC (mg/L) Imipenem (+HIPS 5694 128 mg/L) ([8]; +HIPS 5694 128 mg/L): 2 mg/L (≈ 8.88 µM) | HIPS 5694 MIG [8, 20]: >256 mg/L | MIC (mg/L) Imipenem (+HIPS 5694 128 mg/L) ([9]; +HIPS 5694 128 mg/L): 2 mg/L (≈ 8.88 µM) | HIPS 5694 MIG [9, 20]: >256 mg/L | HIPS 5694 MIG ([10]; intrinsic antimicrobial activity, P. aeruginosa IMP-1 (T2325)): >256 mg/L | IC50 [11]: 6.4 ± 0.6 µM | MIC (mg/L) Imipenem (+HIPS 5694 128 mg/L) ([12]; +HIPS 5694 128 mg/L, S. marcescens NDM-1 (T2352)): 4 mg/L (≈ 17.8 µM) | HIPS 5694 MIG ([12]; intrinsic antimicrobial activity, S. marcescens NDM-1 (T2352)): >256 mg/L | Imipenem MIC ([13]; +2 mg/L compound): 32 µg/mL | Imipenem MIC ([13]; +4 mg/L compound): 32 µg/mL | Imipenem MIC ([13]; +8 mg/L compound): 32 µg/mL | Imipenem MIC ([13]; +16 mg/L compound): 16 µg/mL | Imipenem MIC ([13]; +32 mg/L compound): 16 µg/mL | Imipenem MIC ([13]; +64 mg/L compound): 8 µg/mL | Imipenem MIC ([13]; +128 mg/L compound): 0.5 µg/mL | HIPS 5694 MIG [14]: >256 mg/L | HIPS 5694 MIG ([15]; intrinsic antimicrobial activity, E. cloacae GIM-1 (T2218)): >256 mg/L | IC50 [16]: 4 µM | HIPS 5694 MIG [17]: >256 mg/L | MIC (mg/L) Imipenem (+HIPS 5694 128 mg/L) ([18]; +HIPS 5694 128 mg/L): 0.5 mg/L (≈ 2.22 µM) | HIPS 5694 MIG [18, 20]: >256 mg/L

C[C@@H](O)[C@H]1C(=O)N2C(C(=O)O)=C(SCCN=CN)C[C@H]12 [Imipenem, reference compound]
MIC [1, 21]: 2 µg/mL | MIC ([3]; Escherichia coli, read-out: MIC (mg/L) Imipenem): 32 mg/L (≈ 107 µM) | MIC [5, 21]: 128 µg/mL | Imipenem MIC ([5]; without compound): 128 µg/mL | MIC ([10]; Pseudomonas aeruginosa, read-out: MIC (mg/L) Imipenem): 64 mg/L (≈ 214 µM) | MIC ([12]; Serratia marcescens, read-out: MIC (mg/L) Imipenem): 256 mg/L (≈ 855 µM) | MIC ([13]; Escherichia coli, read-out: Imipenem MIC, without compound): 32 µg/mL | Imipenem MIC ([13]; without compound): 64 µg/mL | MIC ([15]; Enterobacter cloacae, read-out: MIC (mg/L) Imipenem): 2 mg/L (≈ 6.68 µM) | MIC [19]: 128 µg/mL
